Molecular target: T1, hSCN3A sodium channels (Homo sapiens, UniProt Q9NY46)
T1 construct: expressed in transfected cells
Test: hSCN3A electrophysiology, whole-cell patch-clamp or PatchXpress 7000, estimated IC-50 (Table B)
Type: cell-based
Conditions: estimated IC-50; hSCN3A cells, whole-cell patch-clamp or PatchXpress 7000; read-out: SCN3A EIC-50
Method in brief: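 Stably transfected HEK cells, whole-cell voltage clamp at 22-24° C, manual or PatchXpress 7000. Cells held at empirically determined inactivation V1/2; current evoked by 20 msec step to 0 mV after 8 sec prepulse to V1/2.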

T1 sequence (Q9NY46 whole entry): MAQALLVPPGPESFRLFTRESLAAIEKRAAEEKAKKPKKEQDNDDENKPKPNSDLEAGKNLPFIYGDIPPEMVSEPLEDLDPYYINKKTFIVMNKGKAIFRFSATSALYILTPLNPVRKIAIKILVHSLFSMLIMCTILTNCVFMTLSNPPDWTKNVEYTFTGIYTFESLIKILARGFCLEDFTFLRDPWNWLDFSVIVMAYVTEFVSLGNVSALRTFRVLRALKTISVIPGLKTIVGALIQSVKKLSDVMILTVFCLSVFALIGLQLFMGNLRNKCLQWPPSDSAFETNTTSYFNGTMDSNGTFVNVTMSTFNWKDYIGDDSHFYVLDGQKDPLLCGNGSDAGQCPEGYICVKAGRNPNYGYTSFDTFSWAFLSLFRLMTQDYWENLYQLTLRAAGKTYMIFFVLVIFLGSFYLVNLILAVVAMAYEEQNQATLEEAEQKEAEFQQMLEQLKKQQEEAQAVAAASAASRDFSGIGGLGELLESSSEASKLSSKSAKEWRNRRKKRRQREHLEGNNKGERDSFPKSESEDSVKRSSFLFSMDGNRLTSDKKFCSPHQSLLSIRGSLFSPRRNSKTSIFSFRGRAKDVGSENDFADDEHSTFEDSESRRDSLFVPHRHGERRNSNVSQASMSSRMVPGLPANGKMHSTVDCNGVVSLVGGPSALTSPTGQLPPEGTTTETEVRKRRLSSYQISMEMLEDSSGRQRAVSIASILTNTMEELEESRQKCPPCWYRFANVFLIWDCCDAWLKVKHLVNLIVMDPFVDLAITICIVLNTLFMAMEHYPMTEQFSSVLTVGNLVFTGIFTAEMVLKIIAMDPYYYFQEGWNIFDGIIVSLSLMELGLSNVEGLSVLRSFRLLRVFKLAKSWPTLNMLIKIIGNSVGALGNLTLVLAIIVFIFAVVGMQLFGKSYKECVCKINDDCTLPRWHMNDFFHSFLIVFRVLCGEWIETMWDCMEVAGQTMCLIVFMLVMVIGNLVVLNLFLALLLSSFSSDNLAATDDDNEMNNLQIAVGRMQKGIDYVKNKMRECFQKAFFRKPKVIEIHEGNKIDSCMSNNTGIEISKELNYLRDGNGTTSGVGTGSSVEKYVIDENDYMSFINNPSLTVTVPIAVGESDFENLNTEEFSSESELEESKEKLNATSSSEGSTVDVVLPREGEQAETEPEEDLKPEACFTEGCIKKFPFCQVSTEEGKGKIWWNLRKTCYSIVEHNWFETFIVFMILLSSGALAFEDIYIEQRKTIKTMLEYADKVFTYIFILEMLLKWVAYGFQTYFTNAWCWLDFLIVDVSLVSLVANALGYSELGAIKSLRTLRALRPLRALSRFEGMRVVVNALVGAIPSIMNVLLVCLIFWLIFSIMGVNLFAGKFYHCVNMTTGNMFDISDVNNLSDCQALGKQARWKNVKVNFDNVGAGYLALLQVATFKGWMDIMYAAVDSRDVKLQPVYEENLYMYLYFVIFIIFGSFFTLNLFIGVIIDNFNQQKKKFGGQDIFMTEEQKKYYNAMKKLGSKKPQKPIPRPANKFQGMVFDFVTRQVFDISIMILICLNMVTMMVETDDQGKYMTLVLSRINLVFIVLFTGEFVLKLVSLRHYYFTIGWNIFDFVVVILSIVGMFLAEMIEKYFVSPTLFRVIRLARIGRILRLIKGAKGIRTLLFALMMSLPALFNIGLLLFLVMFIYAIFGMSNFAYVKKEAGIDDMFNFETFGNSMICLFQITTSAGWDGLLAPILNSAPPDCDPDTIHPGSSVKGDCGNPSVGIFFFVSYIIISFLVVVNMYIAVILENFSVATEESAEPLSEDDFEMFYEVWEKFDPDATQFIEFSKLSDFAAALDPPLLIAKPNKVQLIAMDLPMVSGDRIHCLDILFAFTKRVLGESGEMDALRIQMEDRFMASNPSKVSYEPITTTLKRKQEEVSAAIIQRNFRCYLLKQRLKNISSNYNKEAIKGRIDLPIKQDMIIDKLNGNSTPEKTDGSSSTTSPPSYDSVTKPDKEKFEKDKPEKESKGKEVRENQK

Row | SMILES | IC50
1 | O=C(NCc1cccc(OC(F)(F)F)c1)c1ccc(S(=O)(=O)Nc2ncc(Cl)s2)c(Cl)c1 [Example 364, 3-Chloro-4-{[(5-chloro-1,3-thiazol-2-yl)amino]sulfonyl}-N-[3-(trifluoromethoxy)benzyl]benzamide] | 2.18 µM
2 | O=C(NCc1ccccc1C(F)(F)F)c1ccc(S(=O)(=O)Nc2nccs2)cc1 [Example 88, 4-[(1,3-Thiazol-2-ylamino)sulfonyl]-N-[2-(trifluoromethyl)benzyl]benzamide] | > 0.1 µM
3 | O=C(NCc1ccc(OC(F)(F)F)c(F)c1)c1ccc(S(=O)(=O)Nc2nccs2)cn1 [Example 343, N-[3-fluoro-4-(trifluoromethoxy)benzyl]-5-[(1,3-thiazol-2-ylamino)sulfonyl] pyridine-2-carboxamide] | 0.31 µM
4 | O=C(NCc1ccc(OC(F)(F)F)cc1)c1ccc(S(=O)(=O)Nc2ncc(Cl)s2)cc1F [Example 360, 4-{[(5-Chloro-1,3-thiazol-2-yl)amino]sulfonyl}-2-fluoro-N-[4-(trifluoromethoxy)benzyl]benzamide] | 0.16 µM
5 | O=C(NCc1cccc(OC(F)(F)F)c1)c1ccc(S(=O)(=O)Nc2ncc(Cl)s2)cc1F [Example 357, 4-{[(5-Chloro-1,3-thiazol-2-yl)amino]sulfonyl}-2-fluoro-N-[3-(trifluoromethoxy)benzyl]benzamide] | 0.19 µM
6 | Cc1ccccc1O[C@H]1CCN(C(=O)c2ccc(S(=O)(=O)Nc3nccs3)cc2)C1 [Example 198, 4-{[(3S)-3-(2-methylphenoxy)pyrrolidin-1-yl]carbonyl}-N-1,3-thiazol-2-yl-benzenesulfonamide] | 3.03 µM
7 | O=C(NCc1ccc(C(F)(F)F)c(F)c1)c1ccc(S(=O)(=O)Nc2nccs2)cc1F [Example 333, 2-Fluoro-N-[3-fluoro-4-(trifluoromethyl)benzyl]-4-[(1,3-thiazol-2-ylamino)sulfonyl] benzamide] | 0.21 µM
8 | O=C(NCc1cccc(OC(F)(F)F)c1)c1ccc(S(=O)(=O)Nc2ncc(Cl)s2)cc1 [Example 29, 4-{[(5-Chloro-1,3-thiazol-2-yl)amino]sulfonyl}-N-[3-(trifluoromethoxy)benzyl]benzamide] | 0.17 µM
9 | O=C(NCc1ccc(-c2ccccc2)cc1)c1ccc(S(=O)(=O)Nc2nccs2)cc1 [Example 399, N-(biphenyl-4-ylmethyl)-4-[(1,3-thiazol-2-ylamino)sulfonyl] benzamide] | 0.03 µM
10 | O=C(NCc1ccc(F)c(OC(F)(F)F)c1)c1ccc(S(=O)(=O)Nc2ncc(Cl)s2)c(F)c1 [Example 313, 4-{[(5-Chloro-1,3-thiazol-2-yl)amino]sulfonyl}-3-fluoro-N-[4-fluoro-3-(trifluoromethoxy)benzyl]benzamide] | 0.16 µM
11 | O=C(NCc1ccc(C(F)(F)F)c(F)c1)c1ccc(S(=O)(=O)Nc2ncc(Cl)s2)cc1Cl [Example 339, 2-Chloro-4-{[(5-chloro-1,3-thiazol-2-yl)amino]sulfonyl}-N-[3-fluoro-4-(trifluoromethyl)benzyl]benzamide] | 0.59 µM
12 | O=C(NCc1ccc(OC(F)(F)F)cc1)c1ccc(S(=O)(=O)Nc2ncc(Cl)s2)cc1 [Example 45, 4-{[(5-Chloro-1,3-thiazol-2-yl)amino]sulfonyl}-N-[4-(trifluoromethoxy)benzyl]benzamide] | 0.07 µM
13 | O=C(c1ccc(S(=O)(=O)Nc2nccs2)cc1)N1CC[C@@H](Oc2ccccc2Cl)C1 [Example 247, 4-{[(3R)-3-(2-chlorophenoxy)pyrrolidin-1-yl]carbonyl}-N-1,3-thiazol-2-yl-benzenesulfonamide] | > 1 µM
14 | COc1ccc(CNC(=O)c2ccc(S(=O)(=O)Nc3nccs3)cc2)cc1 [Example 176, N-(4-methoxybenzyl)-4-[(1,3-thiazol-2-ylamino)sulfonyl]benzamide] | 4.5 µM
15 | CN(Cc1ccc(F)cc1)C(=O)c1ccc(S(=O)(=O)Nc2ncc(Cl)s2)cc1 [Example 43, 4-{[(5-Chloro-1,3-thiazol-2-yl)amino]sulfonyl}-N-(4-fluorobenzyl)-N-methylbenzamide] | 4.83 µM
16 | O=C(NCc1ccc(C(F)(F)F)nc1)c1ccc(S(=O)(=O)Nc2nccs2)cc1 [Example 408, 4-[(1,3-Thiazol-2-ylamino)sulfonyl]-N-{[6-(trifluoromethyl)pyridin-3-yl]methyl}benzamide] | 1.09 µM
17 | O=C(NCc1ccc(C(F)(F)F)cc1F)c1ccc(S(=O)(=O)Nc2ncc(Cl)s2)cc1 [Example 39, 4-{[(5-Chloro-1,3-thiazol-2-yl)amino]sulfonyl}-N-[2-fluoro-4-(trifluoromethyl)benzyl]benzamide] | 0.12 µM
18 | O=C(NCc1ccc(C(F)(F)F)cc1)c1ccc(S(=O)(=O)Nc2ncc(Cl)s2)cc1 [Example 1, 4-{[(5-Chloro-1,3-thiazol-2-yl)amino]sulfonyl}-N-[4-(trifluoromethyl)benzyl]benzamide] | 0.07 µM
19 | O=C(c1ccc(S(=O)(=O)Nc2nccs2)cc1)N1CCCC(Cc2ccc(F)cc2)C1 (stereo not shown) [Example 222, 4-{[3-(4-Fluorobenzyl)piperidin-1-yl]carbonyl}-N-1,3-thiazol-2-yl-benzenesulfonamide] | 0.98 µM
20 | Cc1cc(NC(=O)c2ccc(S(=O)(=O)Nc3nccs3)cc2)cnc1C [Example 175, N-(5,6-dimethylpyridin-3-yl)-4-[(1,3-thiazol-2-ylamino)sulfonyl]benzamide] | 4.05 µM
21 | O=C(NCc1ccc(C(F)(F)F)c(F)c1)c1ccc(S(=O)(=O)Nc2ncns2)cc1 [Example 323, N-[3-fluoro-4-(trifluoromethyl)benzyl]-4-[(1,2,4-thiadiazol-5-ylamino)sulfonyl]benzamide] | 0.19 µM
22 | O=C(NCc1ccc(C(F)(F)F)cc1)c1ccc(S(=O)(=O)Nc2ncc(Cl)s2)c(F)c1 [Example 315, 4-{[(5-Chloro-1,3-thiazol-2-yl)amino]sulfonyl}-3-fluoro-N-[4-(trifluoromethyl)benzyl] benzamide] | 0.11 µM
23 | O=C(N[C@H]1C[C@@H]1c1ccccc1)c1ccc(S(=O)(=O)Nc2ncc(Cl)s2)cc1 [Example 42, 4-{[(5-Chloro-1,3-thiazol-2-yl)amino]sulfonyl}-N-[(1S,2R)-2-phenylcyclopropyl]benzamide] | 0.51 µM
24 | O=C(NCc1ccc(OC(F)(F)F)c(F)c1)c1ccc(S(=O)(=O)Nc2ncns2)cc1 [Example 321, N-[3-fluoro-4-(trifluoromethoxy)benzyl]-4-[(1,2,4-thiadiazol-5-ylamino)sulfonyl]benzamide] | 0.04 µM
25 | O=C(NCc1ccc(Cl)c(F)c1)c1ccc(S(=O)(=O)Nc2nccs2)c(Cl)c1 [Example 292, 3-Chloro-N-(4-chloro-3-fluorobenzyl)-4-[(1,3-thiazol-2-yl-amino)sulfonyl]benzamide] | 0.9 µM
26 | COc1cccc(CNC(=O)c2ccc(S(=O)(=O)Nc3nccs3)cc2)c1 [Example 170, N-(3-methoxybenzyl)-4-[(1,3-thiazol-2-ylamino)sulfonyl]benzamide] | 3.92 µM
27 | Cn1cnc(NS(=O)(=O)c2ccc(C(=O)NCc3ccc(C(F)(F)F)cc3)cc2)n1 [Example 9, 4-{[(1-Methyl-1H-1,2,4-triazol-3-yl)amino]sulfonyl}-N-[4-(trifluoromethyl)benzyl]benzamide] | > 10 µM
28 | CC(C)(NC(=O)c1ccc(S(=O)(=O)Nc2nccs2)cc1)c1ccc(C(F)(F)F)cc1 [Example 123, N-{1-methyl-1-[4-(trifluoromethyl)phenyl]ethyl}-4-[(1,3-thiazol-2-ylamino)sulfonyl]benzamide] | 1.44 µM
